Molecular target: T1, 4-hydroxyphenylpyruvate dioxygenase (Homo sapiens, UniProt P32754)
Assay: Inhibition of purified His6-tagged recombinant human HPPD assessed as inhibition of maleylacetoacetate formation after 30 mins by UV/visible spectrophotometry
Target sequence in this assay (P32754 whole entry): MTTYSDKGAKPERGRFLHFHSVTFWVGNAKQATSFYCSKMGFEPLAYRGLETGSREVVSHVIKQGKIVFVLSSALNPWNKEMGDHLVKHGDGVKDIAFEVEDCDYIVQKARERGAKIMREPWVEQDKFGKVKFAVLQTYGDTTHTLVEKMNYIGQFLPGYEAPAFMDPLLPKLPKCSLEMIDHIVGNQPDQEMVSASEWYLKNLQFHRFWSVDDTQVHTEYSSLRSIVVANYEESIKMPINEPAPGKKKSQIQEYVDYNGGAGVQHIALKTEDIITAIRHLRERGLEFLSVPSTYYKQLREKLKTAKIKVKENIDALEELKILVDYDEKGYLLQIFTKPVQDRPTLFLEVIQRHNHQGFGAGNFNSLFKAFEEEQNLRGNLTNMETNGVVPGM

Compound	Ki [nM]
COc1ccccc1-n1c(C)nc2ccc(C(=O)c3c(C)nn(C)c3O)cc2c1=O	207
Cc1cc(Cl)ccc1-n1c(C)nc2ccc(C(=O)c3cnn(C)c3O)cc2c1=O	32
Cc1nc2ccc(C(=O)c3cnn(C)c3O)cc2c(=O)n1-c1ccccc1Br	24
Cc1ccc(-n2c(C)nc3ccc(C(=O)c4cnn(C)c4O)cc3c2=O)c(F)c1	170
Cc1ccccc1-n1c(C)nc2ccc(C(=O)c3c(C)nn(C)c3O)cc2c1=O	248
Cc1cc(F)ccc1-n1c(C)nc2ccc(C(=O)c3c(C)nn(C)c3O)cc2c1=O	219
COc1ccc(-n2c(C)nc3ccc(C(=O)c4cnn(C)c4O)cc3c2=O)cc1	60
Cc1nc2ccc(C(=O)c3cnn(C)c3O)cc2c(=O)n1-c1ccccc1	19
Cc1cccc(-n2c(C)nc3ccc(C(=O)c4cnn(C)c4O)cc3c2=O)c1	13
COc1cccc(-n2c(C)nc3ccc(C(=O)c4cnn(C)c4O)cc3c2=O)c1	34
Cc1ccc(-n2c(C)nc3ccc(C(=O)c4c(C)nn(C)c4O)cc3c2=O)c(Br)c1	87
Cc1ccc(-n2c(C)nc3ccc(C(=O)c4c(C)nn(C)c4O)cc3c2=O)c(F)c1	81
COc1ccccc1-n1c(C)nc2ccc(C(=O)c3cnn(C)c3O)cc2c1=O	38
Cc1ccc(-n2c(C)nc3ccc(C(=O)c4cnn(C)c4O)cc3c2=O)c(C)c1	59
Cc1nc2ccc(C(=O)c3cnn(C)c3O)cc2c(=O)n1-c1ccc(Cl)c(Cl)c1	25
Cc1nc2ccc(C(=O)c3cnn(C)c3O)cc2c(=O)n1-c1cccc(Cl)c1	10
Cc1ccc(-n2c(C)nc3ccc(C(=O)c4cnn(C)c4O)cc3c2=O)c(Br)c1	11
COc1ccc(-n2c(C)nc3ccc(C(=O)c4c(C)nn(C)c4O)cc3c2=O)cc1	238
Cc1ccc(-n2c(C)nc3ccc(C(=O)c4cnn(C)c4O)cc3c2=O)c(Cl)c1	90
Cc1nc2ccc(C(=O)c3cnn(C)c3O)cc2c(=O)n1-c1cccc(OC(F)(F)F)c1	31
Cc1nn(C)c(O)c1C(=O)c1ccc2nc(C)n(-c3ccc(Cl)cc3)c(=O)c2c1	237
Cc1nc2ccc(C(=O)c3cnn(C)c3O)cc2c(=O)n1-c1ccc(Br)cc1	18

Compound	Ki [nM]
Cc1ccc(-n2c(C)nc3ccc(C(=O)c4c(C)nn(C)c4O)cc3c2=O)c(C)c1	161
Cc1ccc(-n2c(C)nc3ccc(C(=O)c4cnn(C)c4O)cc3c2=O)cc1	25
Cc1nn(C)c(O)c1C(=O)c1ccc2nc(C)n(-c3cccc(F)c3)c(=O)c2c1	90
Cc1nc2ccc(C(=O)c3cnn(C)c3O)cc2c(=O)n1-c1ccccc1F	15
Cc1nn(C)c(O)c1C(=O)c1ccc2nc(C)n(-c3ccc(F)cc3)c(=O)c2c1	247
Cc1nc2ccc(C(=O)c3cnn(C)c3O)cc2c(=O)n1-c1ccc(Cl)cc1	22
Cc1nc2ccc(C(=O)c3cnn(C)c3O)cc2c(=O)n1-c1cccc(F)c1	20
Cc1nc2ccc(C(=O)c3cnn(C)c3O)cc2c(=O)n1-c1ccccc1Cl	22
Cc1nc2ccc(C(=O)c3cnn(C)c3O)cc2c(=O)n1-c1cccc(Br)c1	14
Cc1ccc(-n2c(C)nc3ccc(C(=O)c4c(C)nn(C)c4O)cc3c2=O)c(Cl)c1	109
Cc1cccc(-n2c(C)nc3ccc(C(=O)c4c(C)nn(C)c4O)cc3c2=O)c1	74
Cc1ccccc1-n1c(C)nc2ccc(C(=O)c3cnn(C)c3O)cc2c1=O	58
Cc1cc(F)ccc1-n1c(C)nc2ccc(C(=O)c3cnn(C)c3O)cc2c1=O	40
Cc1nn(C)c(O)c1C(=O)c1ccc2nc(C)n(-c3ccc(Br)cc3)c(=O)c2c1	130
Cc1cc(Cl)ccc1-n1c(C)nc2ccc(C(=O)c3c(C)nn(C)c3O)cc2c1=O	177
Cc1nn(C)c(O)c1C(=O)c1ccc2nc(C)n(-c3cccc(Cl)c3)c(=O)c2c1	173
Cc1nn(C)c(O)c1C(=O)c1ccc2nc(C)n(-c3ccccc3Cl)c(=O)c2c1	86
Cc1nc2ccc(C(=O)c3cnn(C)c3O)cc2c(=O)n1-c1ccc(OC(F)(F)F)cc1	160
Cc1nn(C)c(O)c1C(=O)c1ccc2nc(C)n(-c3cccc(Br)c3)c(=O)c2c1	93
Cc1nn(C)c(O)c1C(=O)c1ccc2nc(C)n(-c3ccccc3F)c(=O)c2c1	79
Cc1ccc(-n2c(C)nc3ccc(C(=O)c4c(C)nn(C)c4O)cc3c2=O)cc1	156
Cc1nc2ccc(C(=O)c3cnn(C)c3O)cc2c(=O)n1-c1ccc(F)cc1	34

Molecular target: T1, 4-hydroxyphenylpyruvate dioxygenase
Assay: Ratio of Nitisinone Ki to compound Ki for purified His6-tagged recombinant human HPPD assessed as inhibition of maleylacetoacetate formation after 30 mins by UV/visible spectrophotometry
Target sequence in this assay (P32754 2-393 limits assumed): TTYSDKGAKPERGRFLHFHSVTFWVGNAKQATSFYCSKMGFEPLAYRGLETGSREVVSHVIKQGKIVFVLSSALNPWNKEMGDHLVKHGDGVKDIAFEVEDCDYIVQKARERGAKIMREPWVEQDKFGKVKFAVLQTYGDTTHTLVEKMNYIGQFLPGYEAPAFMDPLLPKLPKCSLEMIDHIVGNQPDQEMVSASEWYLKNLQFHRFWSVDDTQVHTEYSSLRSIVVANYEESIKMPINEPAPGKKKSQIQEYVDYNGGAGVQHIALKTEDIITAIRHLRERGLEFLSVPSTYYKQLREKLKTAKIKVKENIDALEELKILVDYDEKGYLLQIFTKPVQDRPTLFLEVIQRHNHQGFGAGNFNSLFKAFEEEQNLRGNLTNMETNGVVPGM

Compound	Ratio Ki
Cc1nc2ccc(C(=O)c3cnn(C)c3O)cc2c(=O)n1-c1cccc(Cl)c1	3
Cc1ccc(-n2c(C)nc3ccc(C(=O)c4cnn(C)c4O)cc3c2=O)c(Br)c1	3
